Some results are limits rather than exact numbers.

Tested on in one test: not given
Test: not given
The note with it: in vivo; cited from earlier work.
Turning to `NC1(C(=O)O)CCC2C(C(=O)O)C21` (single isomer, unassigned; (+)) [LY354740, (+)-2-aminobicyclo [3,1,0] hexane-2,6-dicarboxylic acid], the “development of morphine tolerance” value is recorded as “inhibit the development of morphine tolerance”.

The subject of the next test is C57/BL mice. In words: Acute effects in the tail-flick test (Experiment 2). In kind it is in vivo. The note with it: Mus musculus, sc; read-out: antinociceptive ED50 dose. The protocol: (§1) Male C57/BL mice (IMP, Lodz, Poland), 22-24 g of body weight were group-housed in the standard laboratory cages and kept in a temperature-controlled colony room (21+2° C.) with a 12-hr light/dark cycle (light on: 07:00, off: 19:00). Commercial food and tap water were available ad libitum. Each experimental group consisted of 7-28 mice per treatment. All mice were used only once.
(§2) The intensity of the heat stimulus was adjusted so that the baseline tail-flick latency was ˜3 s. […] Each response assessment consisted of two separate measurements taken at different portions of the tail (spaced by 1.5-2 cm) and separated by 15 s. The mean of these responses was used for subsequent comparisons.
Background: Thermal pain tests record how soon the animal reacts.
In general, ED50 refers to the midpoint of the dose-response relation. With `CN1CC[C@]23c4c5ccc(O)c4O[C@H]2[C@@H](O)C=C[C@H]3[C@H]1C5` [Morphine], the ED50 is 3 mg/kg.

The subject of another test is C57/BL mice. The test can be described thus: animal or person. The class given is in vivo. The note with it: Mus musculus, sc, 24 h, read-out: Test #1 ED50 (morphine antinociceptive). The method, then: as §1, §2
For the compound `CN1CC[C@]23c4c5ccc(O)c4O[C@H]2[C@@H](O)C=C[C@H]3[C@H]1C5` [Morphine], the ED50 is 1.49 ± 0.26 mg/kg.

Still in this test, the particulars now being: Mus musculus, sc, 192 h, read-out: Test #2 ED50 (morphine antinociceptive).
With `CN1CC[C@]23c4c5ccc(O)c4O[C@H]2[C@@H](O)C=C[C@H]3[C@H]1C5` [Morphine], the ED50 worked out at 8.85 ± 2.22 mg/kg.

Still in this test, the particulars now being: mouse, in vivo.
Take `CC12CC3CC(C)(C1)CC(N)(C3)C2` [Memantine, memantine]: the “effect on the development of morphine tolerance” value is “produced an inhibition of morphine tolerance”.

In a further test the target is NAALADase (Homo sapiens, UniProt Q04609). The test can be described thus: In vitro inhibition of NAALADase activity. The class given is biochemical.
Sequence of NAALADase (Q04609 whole entry): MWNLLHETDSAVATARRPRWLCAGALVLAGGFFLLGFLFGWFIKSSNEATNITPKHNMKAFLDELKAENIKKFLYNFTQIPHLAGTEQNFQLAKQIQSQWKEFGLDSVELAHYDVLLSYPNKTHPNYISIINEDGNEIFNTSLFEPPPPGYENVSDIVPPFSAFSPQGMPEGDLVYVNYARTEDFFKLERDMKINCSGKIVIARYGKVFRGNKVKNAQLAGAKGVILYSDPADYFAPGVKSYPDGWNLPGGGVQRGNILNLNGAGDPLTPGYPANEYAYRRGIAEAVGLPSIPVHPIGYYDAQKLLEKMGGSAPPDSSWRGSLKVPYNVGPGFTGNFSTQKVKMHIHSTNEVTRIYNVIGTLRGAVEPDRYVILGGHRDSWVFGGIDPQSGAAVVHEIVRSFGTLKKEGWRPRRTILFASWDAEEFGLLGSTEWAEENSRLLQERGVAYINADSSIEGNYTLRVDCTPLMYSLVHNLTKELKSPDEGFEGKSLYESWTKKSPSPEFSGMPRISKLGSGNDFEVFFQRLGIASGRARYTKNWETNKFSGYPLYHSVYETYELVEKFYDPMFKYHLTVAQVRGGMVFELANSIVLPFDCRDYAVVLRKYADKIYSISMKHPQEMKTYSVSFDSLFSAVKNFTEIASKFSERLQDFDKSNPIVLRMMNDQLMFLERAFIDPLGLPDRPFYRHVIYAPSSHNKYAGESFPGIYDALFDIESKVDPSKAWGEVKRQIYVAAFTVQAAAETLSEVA
Conditions: not given
Broadly, the Ki is a dissociation constant, usually derived from enzyme kinetics or from competition with a known ligand. Read a low Ki as higher affinity. `O=C(O)c1ccc(OCCCSSCCCOc2ccc(C(=O)O)cc2C(=O)O)c(C(=O)O)c1` [4-[3-[[3-(2,4-dicarboxyphenoxy)-propyl]-dithio]propoxy]-1,3-benzenedicarboxylic acid] returned a Ki of 3750 nM. This counts as single-digit micromolar.

As to `O=C(O)c1ccc(C(=O)O)c(Sc2ccccc2C(=O)O)c1` [2-[(2-carboxyphenyl)thio]-1,4-benzenedicarboxylic acid], the affinity corresponds to a Ki of 572 nM.

`O=C(O)c1cc(OCCCS)cc(C(=O)O)c1` [5-(3-mercaptopropoxy)-1,3-benzenedicarboxylic acid] came in with a Ki of 3300 nM. On the same count and under the same terms, then `O=C(O)c1cc(C(=O)O)cc(P(=O)(O)O)c1` [5-phosphono-1,3-benzenedicarboxylic acid], with 14000 nM; and `O=C(O)CNc1cc(C(=O)O)cc(C(=O)O)c1` [5-[(carboxymethyl)amino]-1,3-benzenedicarboxylic acid], with 100000 nM. Still for that read-out and setting: then `O=C(O)c1ccc(S(=O)(=O)c2cc(C(=O)O)ccc2C(=O)O)cc1` [2-[(4-carboxyphenyl)sulfonyl]-1,4-benzenedicarboxylic acid], with 2370 nM. On to `O=C(O)c1ccc(C(=O)c2ccc(Oc3ccc(C(=O)O)c(C(=O)O)c3)cc2)c(C(=O)O)c1` [4-[4-(2,4-dicarboxybenzoyl)phenoxy]-1,2-benzenedicarboxylic acid], for which the inhibition constant (Ki) was 1170 nM. Compared with the last compound, the Ki is about 2-fold lower.

Staying with this test, now noted: read-out: IC50.
The IC50 is the concentration that gives 50% inhibition. For the compound `O=C(CCc1cccc(OCc2cccc(C(=O)O)c2)c1)NO` [3-[3-(2-Hydroxycarbamoyl-ethyl)-phenoxymethyl]-benzoic acid], the IC50 came to 92700 nM.

On to `O=C(O)c1cc(Br)cc(CC(CCCS)C(=O)O)c1` (stereo not drawn) [3-bromo-5-carboxy-alpha-(3-mercaptopropyl)-benzenepropanoic acid], for which the IC50 amounted to 2.5 nM. Still for that read-out and setting: then `O=C(CSCCCC(Cc1cc(Oc2ccccc2)cc(C(=O)O)c1)C(=O)O)NO` (stereo not shown) [3-(2-Carboxy-5-hydroxycarbamoylmethyl-sulfanylpentyl)-5-phenoxy-benzoic acid], with 3250 nM.

On to `NC(=O)c1ccccc1CC(CCCS)C(=O)O` (stereo not drawn) [2-(aminocarbonyl)-alpha-(3-mercaptopropyl)-benzenepropanoic acid], for which the IC50 stood at 3950 nM. On to `O=C(NO)c1ccc(OCc2ccccc2)c(C(=O)O)c1` [6-Benzyloxy-N-hydroxy-isophthalamic acid], for which the IC50 was not below 100000 nM. Still for that read-out and setting: then `COC(=O)c1ccccc1OCC(=O)NO` [2-Hydroxycarbamoylmethoxy-benzoic acid methyl ester], with not below 100000 nM; and `O=C(O)c1c(CCS)cccc1OCc1ccccc1Cl` [2-[(2-chlorophenyl)methoxy]-6-(2-mercaptoethyl)-benzoic acid], with 160 nM. The same measure, in the same setting: then `CC(C)(C)c1cc(CC(CCSCC(=O)NO)C(=O)O)cc(C(=O)O)c1` (stereo not shown) [3-tert-Butyl-5-(2-carboxy-4-hydroxycarbamoylmethyl-sulfanylbutyl)-benzoic acid], with 1060 nM; and `O=C(CSCCCC(Cc1cc(C(=O)O)ccc1Cl)C(=O)O)NO` (stereo not shown) [3-(2-Carboxy-5-hydroxycarbamoylmethyl-sulfanylpentyl)-4-chloro-benzoic acid], with 16000 nM.

`O=C(O)c1c(CCS)cccc1Oc1ccccc1` [2-(2-mercaptoethyl)-6-phenoxy-benzoic acid]: the IC50 was 1150 nM. The same measure, in the same setting: then `O=C(CSCCC(Cc1cccc(C(=O)O)c1)C(=O)O)NO` (stereo not shown) [3-(2-Carboxy-4-hydroxycarbamoylmethyl-sulfanylbutyl)-benzoic acid], with 4900 nM; and `O=C(O)c1ccc(COc2ccc(CCS)c(C(=O)O)c2)cc1` [5-[(4-carboxyphenyl)methoxy]-2-(2-mercaptoethyl)-benzoic acid], with 71.5 nM; and `O=C(O)C(CCCS)Cc1ccc(-c2ccccc2)cc1` (stereo not drawn) [alpha-(3-mercaptopropyl)-4-phenyl-benzenepropanoic acid], with 229 nM.

Regarding `O=C(O)c1cc(CC(CCCS)C(=O)O)ccc1F` (stereo not drawn) [3-carboxy-4-fluoro-alpha-(3-mercaptopropyl)-benzenepropanoic acid], the IC50 came to 12 nM. The same measure, in the same setting: the result for `CC(C)(C)c1cc(CC(C(=O)O)C(=O)NO)cc(C(=O)O)c1` (stereo not shown) [3-tert-Butyl-5-(2-carboxy-2-hydroxycarbamoyl-ethyl)-benzoic acid] reads 11900 nM; that for `O=C(NO)c1cc(OCC(F)(F)F)ccc1OCC(F)(F)F` [N-Hydroxy-2,5-bis-(2,2,2-trifluoro-ethoxy)-benzamide], not below 100000 nM. Turning to `O=C(CCCC(Cc1cccc(C(=O)O)c1)C(=O)O)NO` (stereo not shown) [3-(2-Carboxy-5-hydroxycarbamoyl-pentyl)-benzoic acid], the IC50 amounted to 66.3 nM.

For the compound `O=C(O)c1cccc(CC(CCCS)C(=O)O)c1` (stereo not drawn) [3-carboxy-alpha-(3-mercaptopropyl)-benzenepropanoic acid], the IC50 came out at 17 nM. For `CC(=O)Nc1ccc(CC(CCCS)C(=O)O)cc1` (stereo not drawn) [4-(acetylamino)-alpha-(3-mercaptopropyl)-benzenepropanoic acid], the IC50 is 2200 nM. Still for that read-out and setting: then `COc1ccc(C(=O)O)cc1OC(CCCS)C(=O)O` (stereo not shown) [3-(1-carboxy-4-mercaptobutoxy)-4-methoxy-benzoic acid], with 287 nM; and `COC(=O)c1cc(C(=O)NO)ccc1OCc1ccccc1` [6-Benzyloxy-N-hydroxy-isophthalamic acid methyl ester], with not below 100000 nM; and `O=C(CCCSCc1ccc(-c2cccc(C(=O)O)c2)c(C(=O)O)c1)NO` [4-(3-Hydroxycarbamoyl-propylsulfanylmethyl)-biphenyl-2,3′-dicarboxylic acid], with 10800 nM. On the same count and under the same terms, then `CCOC(=O)c1cc(C(=O)O)cc(C(=O)NO)c1` [5-Hydroxycarbamoyl-isophthalic acid monoethyl ester], with 29000 nM; and `O=C(O)c1ccccc1COc1cccc(CCS)c1C(=O)O` [2-[(2-carboxyphenyl)methoxy]-6-(2-mercaptoethyl)-benzoic acid], with 11.5 nM. On the same count and under the same terms, the result for `O=C(O)c1cc(CC(CCCS)C(=O)O)ccc1-c1ccccc1` (stereo not shown) [4-(2-carboxy-5-mercaptopentyl)-[1,1′-biphenyl]-2-carboxylic acid] reads 18 nM; that for `O=C(CCCSCC(Cc1cccc(C(=O)O)c1)C(=O)O)NO` (stereo not shown) [3-[2-Carboxy-3-(3-hydroxycarbamoyl-propylsulfanyl)-propyl]-benzoic acid], 6050 nM; that for `O=C(O)c1cccc(-c2ccc(CS)cc2C(=O)O)c1` [4-(mercaptomethyl)-[1,1′-biphenyl]-2,3′-dicarboxylic acid], 76 nM. As for `O=C(O)C(CCCS)Cc1c(F)c(F)c(F)c(F)c1F` (stereo not drawn) [2,3,4,5,6-pentafluoro-alpha-(3-mercaptopropyl)-benzenepropanoic acid], the IC50 came out at 1000 nM. Same read-out and setting: then `O=C(CCCCSCCCC(Cc1cccc(C(=O)O)c1)C(=O)O)NO` (stereo not shown) [3-[2-Carboxy-5-(4-hydroxycarbamoyl-butylsulfanyl)-pentyl]-benzoic acid], with 7580 nM; and `CN(O)C(=O)CSCCCC(Cc1cccc(C(=O)O)c1)C(=O)O` (stereo not shown) [3-{2-Carboxy-5-[(hydroxy-methyl-carbamoyl)-methylsulfanyl]-pentyl}-benzoic acid], with 14900 nM; and `O=C(O)C(CCCS)Cc1ccc2ccccc2c1` (stereo not drawn) [alpha-(3-mercaptopropyl)-2-naphthalenepropanoic acid], with 1130 nM.

As for `O=C(O)c1cccc(CC(CCCS)C(=O)O)c1` (single isomer, unassigned; (-)) [(−)-3-carboxy-alpha-(3-mercaptopropyl)-benzenepropanoic acid], the IC50 turned out to be 33.3 nM.

Consider `O=C(NO)c1ccc(C(=O)c2ccccc2C(=O)NO)cc1`, for which the IC50 was not below 100000 nM. As to `O=C(O)c1cccc(CC(C(=O)O)C(=O)NO)c1` (stereo not shown) [3-(2-Carboxy-2-hydroxycarbamoyl-ethyl)-benzoic acid], the IC50 was determined as 4530 nM. On the same count and under the same terms, then `CC(C)(C)c1cc(CC(CC(=O)NO)C(=O)O)cc(C(=O)O)c1` (stereo not shown) [3-tert-Butyl-5-(2-carboxy-3-hydroxycarbamoyl-propyl)-benzoic acid], with 296 nM. For the compound `O=C(O)c1cc(CC(CCCS)C(=O)O)cc([N+](=O)[O-])c1` (stereo not drawn) [3-carboxy-alpha-(3-mercaptopropyl)-5-nitro-benzenepropanoic acid], the IC50 amounted to 3 nM. On the same count and under the same terms, the result for `O=C(O)c1cc(CC(CCCS)C(=O)O)ccc1Cl` (stereo not drawn) [3-carboxy-4-chloro-alpha-(3-mercaptopropyl)-benzenepropanoic acid] reads 175 nM; that for `O=C(O)c1cccc(CS)c1` [3-(mercaptomethyl)-benzoic acid], 3780 nM; that for `COc1cc(OC)cc(OC(CCCS)C(=O)O)c1` (stereo not shown) [2-(3,5-dimethoxyphenoxy)-5-mercapto-pentanoic acid], 16100 nM.

Turning to `N#Cc1ccccc1-c1ccc(CC(CCCS)C(=O)O)cc1` (stereo not drawn) [4-(2-cyanophenyl)-alpha-(3-mercaptopropyl)-benzenepropanoic acid], the IC50 is 316 nM.
